From publication PMC5028181 (PLoS ONE, 2016)

system: T1, BmObc1 (oxalate biosynthetic component 1; His-BmObc1); format: biochemical, Burkholderia mallei
T1 construct: gene obc1

Compound | Km [µM]
CC(=O)SCCNC(=O)CCNC(=O)[C@H](O)C(C)(C)COP(=O)(O)OP(=O)(O)OC[C@H]1O[C@@H](n2cnc3c(N)ncnc32)[C@H](O)[C@@H]1OP(=O)(O)O [acetyl-CoA] | 26.8 ± 2.3
O=C(O)CC(=O)C(=O)O [oxaloacetate] | 94.3 ± 9.2
CCC(=O)SCCNC(=O)CCNC(=O)[C@H](O)C(C)(C)COP(=O)(O)OP(=O)(O)OC[C@H]1O[C@@H](n2cnc3c(N)ncnc32)[C@H](O)[C@@H]1OP(=O)(O)O [propionyl-CoA] | 104 ± 12.7
